# Target: T1, hT1R2/hT1R3 sweet receptor expressed in HEK293 cell line (Homo sapiens, UniProt Q7RTX0+Q8TE23)
# T1 construct: expressed in transfected cells; host or cells: HEK293 derivative stably expressing Gα15 and hT1R2/hT1R3, clone S-9
# T1 sequence (Q8TE23 20-839): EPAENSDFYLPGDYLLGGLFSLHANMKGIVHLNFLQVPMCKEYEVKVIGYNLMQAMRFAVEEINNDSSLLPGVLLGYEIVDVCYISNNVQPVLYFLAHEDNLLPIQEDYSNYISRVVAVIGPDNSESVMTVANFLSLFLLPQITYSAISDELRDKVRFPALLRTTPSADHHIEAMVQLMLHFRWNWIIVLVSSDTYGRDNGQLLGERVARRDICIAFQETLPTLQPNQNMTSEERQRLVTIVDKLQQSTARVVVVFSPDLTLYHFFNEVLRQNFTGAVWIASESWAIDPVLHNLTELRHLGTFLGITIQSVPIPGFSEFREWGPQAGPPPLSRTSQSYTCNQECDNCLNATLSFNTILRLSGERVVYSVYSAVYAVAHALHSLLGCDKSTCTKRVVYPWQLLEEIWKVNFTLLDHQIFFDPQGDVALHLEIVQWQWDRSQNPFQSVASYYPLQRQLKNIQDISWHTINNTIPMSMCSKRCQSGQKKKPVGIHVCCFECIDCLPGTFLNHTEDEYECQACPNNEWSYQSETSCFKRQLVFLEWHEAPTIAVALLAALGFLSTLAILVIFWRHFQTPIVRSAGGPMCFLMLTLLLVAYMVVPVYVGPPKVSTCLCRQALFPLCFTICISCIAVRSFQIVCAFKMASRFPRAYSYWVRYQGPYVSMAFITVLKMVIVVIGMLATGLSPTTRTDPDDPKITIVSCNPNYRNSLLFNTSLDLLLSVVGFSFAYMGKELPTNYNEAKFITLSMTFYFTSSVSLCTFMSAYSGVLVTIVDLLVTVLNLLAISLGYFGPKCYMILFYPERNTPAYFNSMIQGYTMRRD
# T1 sequence (Q7RTX0 21-852): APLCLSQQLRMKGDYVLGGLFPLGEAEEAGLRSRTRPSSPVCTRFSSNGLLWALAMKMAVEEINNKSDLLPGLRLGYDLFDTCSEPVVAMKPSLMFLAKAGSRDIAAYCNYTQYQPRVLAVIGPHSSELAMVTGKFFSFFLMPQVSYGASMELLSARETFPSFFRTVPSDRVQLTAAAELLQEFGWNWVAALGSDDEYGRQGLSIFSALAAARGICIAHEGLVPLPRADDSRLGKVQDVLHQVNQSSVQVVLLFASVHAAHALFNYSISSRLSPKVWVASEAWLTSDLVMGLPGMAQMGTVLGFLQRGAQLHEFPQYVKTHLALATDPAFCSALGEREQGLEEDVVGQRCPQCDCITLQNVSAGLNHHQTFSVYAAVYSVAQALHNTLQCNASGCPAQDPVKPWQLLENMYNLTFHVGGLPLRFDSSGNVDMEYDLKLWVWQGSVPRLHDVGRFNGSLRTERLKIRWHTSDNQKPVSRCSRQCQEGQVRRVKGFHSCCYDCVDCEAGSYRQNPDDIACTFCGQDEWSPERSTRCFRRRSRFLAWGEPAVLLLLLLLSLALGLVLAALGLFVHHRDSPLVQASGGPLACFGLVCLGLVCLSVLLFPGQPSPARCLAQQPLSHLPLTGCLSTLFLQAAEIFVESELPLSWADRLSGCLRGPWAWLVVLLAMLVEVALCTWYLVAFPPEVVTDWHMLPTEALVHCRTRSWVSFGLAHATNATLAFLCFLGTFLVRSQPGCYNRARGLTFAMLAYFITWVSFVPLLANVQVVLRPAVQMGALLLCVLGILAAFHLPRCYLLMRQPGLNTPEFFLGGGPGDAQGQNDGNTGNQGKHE
# Assay: In vitro hT1R2/hT1R3-HEK293 taste receptor activation assay (FLIPR)
# Format: cell-based
# Conditions: Table A; read-out: SWEET EC50
# Experimental: An HEK293 cell line derivative (Chandrashekar et al., Cell (2000) 100:703-711) that stably expresses Gα15 and hT1R2/hT1R3 (Li et al., Proc Natl Acad Sci USA (2002) 99:4692-4696), see also PCT Publication No. WO 03/001876 A2) was used to identify compounds with sweet taste enhancing properties.
# Compounds covered in this document were initially selected based on their activity on the hT1R2/hT1R3-HEK293-Gα15 cell line (Li et al. vide supra). Activity was determined using an automated fluorometric imaging assay on a FLIPR instrument ([…], Molecular Devices, Sunnyvale, Calif.) (designated FLIPR assay). Cells from one clone (designated S-9 cells) were seeded into 384-well plates (at approximately 50,000 cells per well) in a medium containing DMEM Low Glucose (Invitrogen, Carlsbad, Calif.), 10% dialyzed fetal bovine serum (Invitrogen, Carlsbad, Calif.), 100 Units/ml Penicillin G, and 100 μg/ml Streptomycin (Invitrogen, Carlsbad, Calif.) (Li et al. vide supra) see also PCT Publication No. WO 03/001876 A2). S-9 cells were grown for 24 hours at 37° C. S-9 cells were then loaded with the calcium dye Fluo-3AM (Molecular Probes, Eugene, Oreg.), 4 μM in a phosphate buffered saline (D-PBS) (Invitrogen, Carlsbad, Calif.), for 1 hour at room temperature. After replacement with 25 μl D-PBS, stimulation was performed in the FLIPR instrument and at room temperature by the addition of 25 μl D-PBS supplemented with different stimuli at concentrations corresponding to twice the desired final level. Receptor activity was quantified by determining the maximal fluorescence increases (using a 480 nm excitation and 535 nm emission) after normalization to basal fluorescence intensity measured before stimulation.
# For dose-responses analysis, stimuli were presented in duplicates at 10 different concentrations ranging from 60 nM to 30 μM. Activities were normalized to the response obtained with 400 mM D-fructose, a concentration that elicits maximum receptor response. EC50s were determined using a non-linear regression algorithm (using a Senomyx, Inc. software), where the Hill slope, bottom asymptotes and top asymptotes were allow to vary. Identical results were obtained when analyzing the dose-response data using commercially available software for non-linear regression analysis such as GraphPad PRISM (San Diego, Calif.).
row,EC50,SMILES
1,0.18 µM,CC(C)(C(=O)NC1CCCCC1)c1ccc(-c2cncc(C#N)c2)cc1 [Compound A86]
2,0.48 µM,CCCNC(=O)C(C)(C)c1ccc(-c2cncc(C#N)c2)cc1 [Compound A90]
3,1.37 µM,CC(C)CNC(=O)C(C)(C)c1ccc(-c2coc(C(=O)O)c2)cc1 [Compound A66]
4,0.11 µM,CCC(C)CNC(=O)C(C)(C)c1ccc(-c2cncc(C#N)c2)cc1 (stereo not drawn) [Compound A83]
5,0.15 µM,CC[C@@H](C)NC(=O)C(C)(C)c1ccc(-c2cncc(C#N)c2)cc1 [Compound A85]
6,0.21 µM,CC(C)CNC(=O)C(C)(C)c1ccc(-c2cncc(OC(C)C)c2)cc1 [Compound A87]
7,2.13 µM,CC(C)CNC(=O)C(C)(C)c1ccc(-c2cncnc2)cc1 [Compound A11]
8,0.77 µM,CC(C)CNC(=O)C(C)(C)c1ccc(-c2cccnc2)cc1 [Compound A56]
9,3.52 µM,CC(C(=O)NC1CC1)c1ccc(-c2ccccc2)c(F)c1 (stereo not drawn) [Compound A1]
10,0.71 µM,CC(NC(=O)C(C)(C)c1ccc(-c2cncc(C#N)c2)cc1)c1ccccc1 (stereo not drawn) [Compound A20]
11,5.4 µM,CC(C)CNC(=O)C(C)(C)c1ccc(-c2cscn2)cc1 [Compound A32]
12,0.63 µM,CC(C)CNC(=O)C(C)(C)c1ccc(-c2cc(CO)ccc2C=O)cc1 [Compound A92]
13,0.67 µM,CC(C)CNC(=O)C(C)(C)c1ccc(-c2cccc(C#N)c2CO)cc1 [Compound A80]
14,3.36 µM,CC(C)CNC(=O)C(C)(C)c1ccc(-c2ccc3[nH]ccc3c2)cc1 [Compound A10]
15,1.17 µM,CC(=O)c1ccccc1-c1ccc(C(C)(C)C(=O)NCC(C)C)cc1 [Compound A24]
16,0.47 µM,CCCNC(=O)C(C)(C)c1ccc(-c2cncc(C#N)n2)cc1 [Compound A52]
17,1.29 µM,CC(C)CNC(=O)C(C)(C)c1ccc(-c2ccc(C#N)o2)cc1 [Compound A63]

row,EC50,SMILES
1,0.76 µM,CC(C)CNC(=O)C(C)(C)c1ccc(-c2cccc(C=O)c2)cc1 [Compound A37]
2,0.05 µM,CCC(C)CNC(=O)C(C)(C)c1ccc(-c2cncc(C#N)n2)cc1 (stereo not drawn) [Compound A41]
3,10.1 µM,CC(C)CNC(=O)C(C)(C)c1ccc(-n2ccnc2)cc1 [Compound A34]
4,0.67 µM,CC(C)CNC(=O)C(C)(C)c1ccc(-c2cccc(C#N)n2)cc1 [Compound A81]
5,0.41 µM,CC(C)(C(=O)NC1CCCCC1)c1ccc(-c2cncnc2)cc1 [Compound A89]
6,1.71 µM,CC(C)CNC(=O)C(C)(C)c1ccc(-c2ccccc2)c(F)c1 [Compound A3]
7,5.4 µM,CC(C)CNC(=O)C(C)(C)c1ccc(-c2ccncn2)cc1 [Compound A33]
8,0.54 µM,COC(=O)c1cncc(-c2ccc(C(C)(C)C(=O)NCC(C)C)cc2)c1 [Compound A73]
9,1.31 µM,CC(C)(C(=O)NCC(O)c1ccco1)c1ccc(-c2cncc(C#N)n2)cc1 (stereo not drawn) [Compound A65]
10,9 µM,CSc1ccccc1-c1ccc(C(C)(C)C(=O)NCC(C)C)cc1 [Compound A14]
11,0.18 µM,CC(C)(C(=O)CCc1ccco1)c1ccc(-c2cncc(C#N)c2)cc1 [Compound A72]
12,0.94 µM,CC(C)CCNC(=O)C(C)(C)c1ccc(-c2cncc(C#N)c2)cc1 [Compound A21]
13,6.6 µM,COc1cccc(-c2ccc(C(C)(C)C(=O)NCC(C)C)cc2)c1OC [Compound A18]
14,0.13 µM,CC(C)(C(=O)NC1CCCC1)c1ccc(-c2cncc(C#N)n2)cc1 [Compound A43]
15,0.65 µM,CC(C)NC(=O)C(C)(C)c1ccc(-c2cncc(C#N)n2)cc1 [Compound A55]
16,0.32 µM,CC(C)(C(=O)NC1CC1)c1ccc(-c2cncc(C#N)n2)cc1 [Compound A47]
17,1.05 µM,Cc1cscc1-c1ccc(C(C)(C)C(=O)NCC(C)C)cn1 [Compound A59]

row,SMILES,EC50
1,CC[C@@H](C)NC(=O)C(C)(C)c1ccc(-c2cccc(COC)c2)cc1 [Compound A53],0.55 µM

# Same assay, conditions: read-out: EC50 for activation of a hT1R2/hT1R3 sweet receptor expressed in HEK293 cell line
row,EC50,SMILES
1,0.35 µM,"CC(C)CNC(=O)C(C)(C)c1ccc(-n2cccc2)cc1 [Compound 28, 2-(4-(1H-pyrrol-1-yl)phenyl)-N-isobutyl-2-methylpropanamide]"
2,0.81 µM,"CC(C)CNC(=O)C(C)(C)c1ccc(-c2ccccc2C=O)cc1 [Compound 37, 2-(2′-formylbiphenyl-4-yl)-N-isobutyl-2-methylpropanamide]"
3,0.14 µM,"CC[C@@H](C)NC(=O)C(C)(C)c1ccc(-c2cncc(C#N)n2)cc1 [Compound 47, (R)-N-sec-butyl-2-(4-(6-cyanopyrazin-2-yl)phenyl)-2-methylpropanamide]"
4,6.53 µM,"CC(C)CNC(=O)C(C)(C)c1nc(-c2ccccc2)no1 [Compound 41, N-isobutyl-2-methyl-2-(3-phenyl-1,2,4-oxadiazol-5-yl)propanamide]"
5,2.2 µM,"CC(C)CNC(=O)C(C)(C)c1ccc(-c2ccccc2N)cc1 [Compound 13, 2-(2′-aminobiphenyl-4-yl)-N-isobutyl-2-methylpropanamide]"
6,7.54 µM,"CC(C)CNC(=O)C(NC(=O)OC(C)(C)C)c1ccc(-c2ccccc2)cc1 (stereo not drawn) [Compound 24, tert-butyl 1-(biphenyl-4-yl)-2-(isobutylamino)-2-oxoethylcarbamate]"
7,3 µM,"Cc1cccc(-c2ccc(C(C)(C)C(=O)NCC(C)C)cc2)c1 [Compound 15, N-isobutyl-2-methyl-2-(3′-methylbiphenyl-4-yl)propanamide]"
8,1.9 µM,"CC(C)CNC(=O)C(C)(C)c1ccc(-c2ccccc2C#N)cc1 [Compound 14, 2-(2′-cyanobiphenyl-4-yl)-N-isobutyl-2-methylpropanamide]"
9,0.38 µM,"CCC(CC)NC(=O)C(C)(C)c1ccc(-c2cncnc2)cc1 [Compound 52, 2-methyl-N-(pentan-3-yl)-2-(4-(pyrimidin-5-yl)phenyl)propanamide]"
10,0.34 µM,"CC(C)CNC(=O)C(C)(C)c1ccc(-c2ccoc2)cc1 [Compound 1, 2-(4-(Furan-3-yl)phenyl)-N-isobutyl-2-methylpropanamide]"

# Source: patent US7842324B2 (Senomyx, Inc., priority 2005, dated 2010)
